Experimental findings from patent US11077100B2, “Tetrahydroquinoline derivatives as P2X7 receptor antagonists” (RaQualia Pharma Inc., priority 2017, dated 2021) are described below.

Bounds are passed on as bounds.

human P2X7, sequence (Q99572 whole entry): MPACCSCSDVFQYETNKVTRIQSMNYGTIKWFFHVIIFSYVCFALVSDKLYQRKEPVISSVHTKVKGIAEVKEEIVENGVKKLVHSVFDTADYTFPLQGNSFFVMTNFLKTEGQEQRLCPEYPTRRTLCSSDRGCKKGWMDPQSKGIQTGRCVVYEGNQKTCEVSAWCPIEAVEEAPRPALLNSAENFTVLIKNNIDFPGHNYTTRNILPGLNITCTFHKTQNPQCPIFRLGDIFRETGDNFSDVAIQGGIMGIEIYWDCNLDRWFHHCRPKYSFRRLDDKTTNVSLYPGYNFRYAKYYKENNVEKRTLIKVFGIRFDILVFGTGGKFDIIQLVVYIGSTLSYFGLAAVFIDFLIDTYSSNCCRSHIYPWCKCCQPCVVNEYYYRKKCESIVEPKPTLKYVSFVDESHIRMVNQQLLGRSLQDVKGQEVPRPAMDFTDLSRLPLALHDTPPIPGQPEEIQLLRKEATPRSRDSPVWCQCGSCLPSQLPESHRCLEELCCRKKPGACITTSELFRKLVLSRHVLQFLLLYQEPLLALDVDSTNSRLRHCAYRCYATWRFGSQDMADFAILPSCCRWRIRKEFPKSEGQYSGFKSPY

The test has as its target human P2X7 (Homo sapiens (Human), UniProt Q99572). Kind of test: Human P2X7 functional assay (Ca2+ influx, Fluo-4, FDSS). The test is classed as cell-based. Particulars: antagonistic activity with respect to the human P2X7 receptor; BzATP final concentration 80 microM. The procedure, abridged:
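HEK293 cells stably expressing C-terminally FLAG-tagged human P2X7, loaded with Fluo-4. Compounds were preincubated for 10 min at room temperature, then 80 μM BzATP (final) was added and Ca2+ fluorescence read at 540 nm (480 nm excitation) by FDSS. IC50 values come from 7-point curves, duplicate wells.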
As to `O=C(N[C@H]1CCC[C@@H]1OCc1ccccc1)[C@]1(F)CC[C@H](O)c2ncccc21` [Example 225, (5S,8S)-N-((1S,2S)-2-(benzyloxy)cyclopentyl)-5-fluoro-8-hydroxy-5,6,7,8-tetrahydroquinoline-5-carboxamide], the IC50 (commonly the concentration that inhibits the measured activity by half) lay in the range of 301 to 1000 nM.

On to `O=C(NCc1ccccc1CN1CCOCC1)[C@]1(F)CC[C@H](O)c2ncccc21` [Example 214, (5S,8S)-5-fluoro-8-hydroxy-N-(2-(morpholinomethyl)benzyl)-5,6,7,8-tetrahydroquinoline-5-carboxamide], for which the IC50 is 101 to 300 nM.

For the compound `O=C(NCc1ccc(F)c(F)c1)[C@]1(F)CC[C@H](O)c2ncccc21` [Example 202, (5S,8S)-N-(3,4-difluorobenzyl)-5-fluoro-8-hydroxy-5,6,7,8-tetrahydroquinoline-5-carboxamide], the IC50 lay in the range of 50 to 100 nM.

Regarding `COc1cccc(Cl)c1CNC(=O)[C@]1(F)CC[C@H](O)c2ncccc21` [Example 198, (5S,8S)-N-(2-chloro-6-methoxybenzyl)-5-fluoro-8-hydroxy-5,6,7,8-tetrahydroquinoline-5-carboxamide], the IC50 was under 50 nM.

Turning to `O=C(NCc1ccc(Cl)cc1Cl)[C@@]1(F)CC[C@H](F)c2ncccc21` [Example 353, (5R,8S)-N-(2,4-dichlorobenzyl)-5,8-difluoro-5,6,7,8-tetrahydroquinoline-5-carboxamide], the IC50 lay in the range of 50 to 100 nM. Under `O=C(NCc1c(Cl)cc(Cl)cc1C(F)F)[C@@]1(F)CC[C@H](O)c2ncccc21` [Example 114] stands 101 to 300 nM; under `O=C(NCc1cccc(Cl)c1Cl)[C@@]1(F)CC[C@H](F)c2ncccc21` [Example 354, (5R,8S)-N-(2,3-dichlorobenzyl)-5.8-difluoro-5,6,7,8-tetrahydroquinaline-5-carboxamide], 50 to 100 nM; under `O=C(NCc1c(Cl)cc(Cl)cc1CO)[C@@]1(F)CC[C@H](O)c2ncccc21` [Example 103, (5R,8S)-N-(2,4-dichloro-6-hydroxymethylbenzyl)-5-fluoro-8-hydroxy-5,6,7,8-tetrahydroquinoline-5-carboxamide], 101 to 300 nM. Under `Cc1ccc(CNC(=O)[C@]2(F)CC[C@@H](O)c3ncccc32)c(Cl)c1` [Example 125, (5S,8R)-N-(2-chloro-4-methylbenzyl)-5-fluoro-8-hydroxy-5,6,7,8-hydroquinoline-5-carboxamide] stands 101 to 300 nM; under `O=C(NCc1ccc(OC(F)(F)F)cc1F)[C@]1(F)CC[C@H](O)c2ncccc21` [Example 207, (5S,8S)-5-fluoro-N-(2-fluoro-4-(trifluoromethoxy)benzyl)-8-hydroxy-5,6,7,8-tetrahydroquinoline-5-carboxamide], 101 to 300 nM. Under `Cc1cc(Cl)cc(Cl)c1CNC(=O)C1CCC(CC(=O)O)c2ncccc21` (stereo not drawn) [Example 30, 2-(5-((2,4-dichloro-6-methyl-benzyl)carbamoyl)-5,6,7,8-tetrahydroquinolin-8-yl) acetic acid] stands under 50 nM; under `O=C1CCC(C(=O)NCc2c(Cl)cc(Cl)cc2CO)c2cccnc21` (stereo not drawn) [Example 4, N-(2,4-dichloro-6-(hydroxy-methyl)benzyl)-8-oxo-5,6,7,8-tetrahydroquinoline-5-carboxamide], under 50 nM. For `O=C(NCc1cccc(C(F)(F)F)c1Cl)[C@@]1(F)CC[C@H](O)c2ncccc21` [Example 101, (5R,8S)-N-(2-chloro-3-(trifluoromethyl)benzyl)-5-fluoro-8-hydroxy-5,6,7,8-tetrahydroquinoline-5-carboxamide], the IC50 lay in the range of 101 to 300 nM. On to `O=C(NCc1ccc(Cl)cc1F)[C@@H]1CC[C@@H](O)c2ncccc21` [Example 95, (5R,8R)-N-(4-chloro-2-fluorobenzyl)-8-hydroxy-5,6,7,8-tetrahydroquinoline-5-carboxamide], for which the IC50 lay in the range of 1000 to 3000 nM. Turning to `O=C(NCC1(c2ccc(F)cc2)CC1)[C@]1(F)CC[C@H](O)c2ncccc21` [Example 220, (5S,8S)-5-fluoro-N-((1-(4-fluorophenyl)cyclopropyl)methyl)-8-hydroxy-5,6,7,8-tetrahydroquinoline-5-carboxamide], the IC50 fell in the range of 301 to 1000 nM.

`Cc1cc(Cl)cc(Cl)c1CNC(=O)[C@H]1C[C@@H](O)c2ncccc21` [Example 98, (5S,7R)-N-(2,4-dichloro-6-methylbenzyl)-7-hy-droxy-6,7-dihydro-5H-cyclopenta[b]pyridin-5-carboxamide] came in with an IC50 of 101 to 300 nM. Then `C[C@H](NC(=O)[C@]1(F)CC[C@](C)(O)c2ncccc21)c1ccc(F)cc1Cl` [Example 271, (5S,8S)-N-((S)-1-(2-chloro-4-fluorophenyl)ethyl)-5-fluoro-8-hydroxy-8-methyl-5,6,7,8-tetrahydroquinoline-5-carboxamide], with 301 to 1000 nM. In the case of `O=C(NCCc1ccc(Cl)cc1Cl)[C@]1(F)CC[C@@](O)(CO)c2ncccc21` [Example 330, (5S,8S)-N-(2,4-dichlorophenethyl)-5-fluoro-8-hydroxy-8-(hydroxymethyl)-5,6,7,8-tetrahydroquinoline-5-carboxamide], the IC50 lay in the range of 301 to 1000 nM. Consider `O=C(NCc1cc(Cl)cc(Cl)c1)[C@]1(F)CC[C@H](O)c2ncccc21` [Example 212, (5S,8S)-N-(3,5-dichlorobenzyl)-5-fluoro-8-hydroxy-5,6,7,8-tetrahydroquinoline-5-carboxamide], for which the IC50 lay within 101 to 300 nM.

`O=C(NCc1ccc(Cl)cc1F)[C@H]1CC[C@H](O)c2ncccc21` [Example 77, (5S,8S)-N-(4-chloro-2-fluorobenzyl)-8-hydroxy-5,6,7,8-tetrahydroquinoline-5-carboxamide] returned an IC50 of 301 to 1000 nM.

Compound `O=C(O)CC1CCC(C(=O)NCc2cccc(C(F)(F)F)c2Cl)c2cccnc21` (stereo not drawn) [Example 31, 2-(5-((2-chloro-3-(trifluoro-methyl)benzyl)carbamoyl)-5,6,7,8-tetrahydroquinolin-8-yl)acetic acid] showed an IC50 of 50 to 100 nM. Regarding `O=C1CC(C(=O)NCc2cccc(C(F)(F)F)c2Cl)c2cccnc21` (stereo not drawn) [Example 17, N-(2-chloro-3-(trifluoromethyl)benzyl)-7-oxo-6,7-dihydro-5H-cyclopenta[b] pyridine-5-carboxamide], the concentration for half-maximal inhibition (IC50) lay within 50 to 100 nM.

On to `O=C(NCc1ccc(F)cc1Cl)[C@H]1CC[C@@H](O)c2ncccc21` [Example 90, (5S,8R)-N-(2-chloro-4-fluorobenzyl)-8-hydroxy-5,6,7,8-tetrahydroquinoline-5-carboxamide], for which the IC50 is 101 to 300 nM. For the compound `Cc1cnc2c(c1)[C@](F)(C(=O)NCc1ccc(F)cc1Cl)CC[C@@H]2O` [Example 244, (5S,8S)-N-(2-chloro-4-fluorobenzyl)-5-fluoro-8-hydroxy-3-methyl-5,6,7,8-tetrahydroquinoline-5-carboxamide], the IC50 lay within 1000 to 3000 nM. With `O=C(NCc1ccc(F)c(F)c1F)[C@H]1CC[C@@H](O)c2ncccc21` [Example 94, (5S,8R)-8-hydroxy-N-(2,3,4-trifluorobenzyl)-5,6,7,8-tetrahydroquinoline-5-carboxamide], the half-inhibitory concentration (IC50) was in the range of 1000 to 3000 nM. Under `Cc1ncsc1C(CNC(=O)[C@]1(F)CC[C@H](O)c2ncccc21)N1CCC(F)(F)CC1` (stereo partly drawn) [Example 236, (5S,8S)-N-(2-(4,4-difluoropiperidin-1-yl)-2-(4-methylthiazol-5-yl)ethyl)-5-fluoro-8-hydroxy-5,6,7,8-tetrahydroquinoline-5-carboxamide] stands 1000 to 3000 nM; under `Cc1cnc2c(c1)[C@](F)(C(=O)NCc1ccc(F)cc1Cl)CC[C@]2(C)O` [Example 276, (5S,8S)-N-(2-chloro-4-fluorobenzyl)-5-fluoro-8-hydroxy-3,8-dimethyl-5,6,7,8-tetrahydroquinoline-5-carboxamide], 301 to 1000 nM. `Cc1cnc2c(c1)[C@](F)(C(=O)NCc1ccc(Cl)cc1Cl)CC[C@@]2(O)CO` [Example 325, (5S,8S)-N-(2,4-dichlorobenzyl)-5-fluoro-8-hydroxy-8-(hydroxymethyl)-3-methyl-5,6,7,8-tetrahydroquinoline-5-carboxamide] returned an IC50 of 1000 to 3000 nM. `O=C(NCc1c(F)cc(Cl)cc1Cl)[C@@]1(F)CC[C@H](O)c2ncccc21` [Example 116, (5R,8S)-N-(2,4-dichloro-6-fluorobenzyl)-5-fluoro-8-hydroxy-5,6,7,8-tetrahydroquinoline-5-carboxamide] came in with an IC50 of 301 to 1000 nM. `O=C(N[C@H]1CCCc2ccccc21)[C@]1(F)CC[C@H](O)c2ncccc21` [Example 218, (5S,8S)-5-fluoro-8-hydroxy-N-((S)-1,2,3,4-tetrahydronaphthalen-1-yl)-5,6,7,8-tetrahydroquinoline-5-carboxamide] gave an IC50 of 301 to 1000 nM.
